Patent publication US8906904B2, “Alkoxy pyrazoles as soluble guanylate cyclase activators” (Boehringer Ingelheim International GmbH, priority 2012, dated 2014)

Molecular target: T1, human soluble guanylate cyclase alpha 1 and beta 1 subunits (sGC) (Homo sapiens, UniProt Q02108+Q02153)
T1 construct: expressed in transfected cells; host or cells: Chinese hamster ovary (CHO) cells, stably transfected
T1 sequence (Q02108 1-690): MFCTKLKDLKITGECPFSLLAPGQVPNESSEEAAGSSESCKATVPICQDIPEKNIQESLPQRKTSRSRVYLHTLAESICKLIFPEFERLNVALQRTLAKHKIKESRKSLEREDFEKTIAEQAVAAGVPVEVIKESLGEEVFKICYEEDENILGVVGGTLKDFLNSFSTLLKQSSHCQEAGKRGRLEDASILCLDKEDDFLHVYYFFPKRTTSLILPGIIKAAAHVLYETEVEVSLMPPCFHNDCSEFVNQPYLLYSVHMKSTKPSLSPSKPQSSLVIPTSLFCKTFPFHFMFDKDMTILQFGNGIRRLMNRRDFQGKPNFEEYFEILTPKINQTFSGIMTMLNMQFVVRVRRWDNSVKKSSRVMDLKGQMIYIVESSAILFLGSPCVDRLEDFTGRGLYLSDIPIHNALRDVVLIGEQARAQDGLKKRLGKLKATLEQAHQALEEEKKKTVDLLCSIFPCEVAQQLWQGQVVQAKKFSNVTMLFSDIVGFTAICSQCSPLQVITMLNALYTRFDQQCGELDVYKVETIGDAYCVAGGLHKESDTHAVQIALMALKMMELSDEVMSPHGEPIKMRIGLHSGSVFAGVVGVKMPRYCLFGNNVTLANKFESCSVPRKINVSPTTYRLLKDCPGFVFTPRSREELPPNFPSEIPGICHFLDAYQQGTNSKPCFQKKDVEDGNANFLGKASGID
T1 sequence (Q02153 1-619): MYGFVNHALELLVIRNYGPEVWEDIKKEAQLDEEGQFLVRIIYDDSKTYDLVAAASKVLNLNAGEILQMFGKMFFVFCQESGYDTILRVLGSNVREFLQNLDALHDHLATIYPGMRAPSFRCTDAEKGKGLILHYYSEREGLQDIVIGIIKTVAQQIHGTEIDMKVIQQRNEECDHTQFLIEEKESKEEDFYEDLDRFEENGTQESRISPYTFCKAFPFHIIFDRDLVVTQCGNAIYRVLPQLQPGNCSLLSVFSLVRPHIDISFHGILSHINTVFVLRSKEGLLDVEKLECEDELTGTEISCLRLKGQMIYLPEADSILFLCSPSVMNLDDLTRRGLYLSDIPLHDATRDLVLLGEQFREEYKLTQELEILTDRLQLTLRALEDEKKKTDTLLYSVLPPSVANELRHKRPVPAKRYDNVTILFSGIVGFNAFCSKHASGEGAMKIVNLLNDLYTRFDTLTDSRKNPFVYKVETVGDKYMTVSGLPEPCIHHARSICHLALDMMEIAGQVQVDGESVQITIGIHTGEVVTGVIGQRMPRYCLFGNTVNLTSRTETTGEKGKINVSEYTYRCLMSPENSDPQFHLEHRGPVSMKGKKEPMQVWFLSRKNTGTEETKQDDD
Assay: sGC cellular activator assay (cGMP, HTRF)
Assay type: cell-based
Settings: CHO cells stably expressing human sGC alpha 1/beta 1, preincubated with 40 microM ODQ; cGMP readout; assay run with and without 50% human serum, Table 2 does not say which
Procedure, shortened: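 First, CHO-sGC (human α1β1) cells get 1 h ODQ at 40 microM with IBMX and 0.1% BSA. Finally, cGMP is quantified by HTRF and EC50 computed.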

SMILES | EC50
CCOc1c(C(=O)O)cnn1-c1cccc(-c2cccc(C)c2OCc2ccc3c(c2)CCCN(C2CCCOC2)C3)n1 (stereo not shown) [Compound 245] | 280 nM
CCOc1c(C(=O)O)cnn1-c1cccc(-c2cccc(C)c2OCc2ccc3c(c2C)CCN(C[C@@H]2COCCO2)CC3)n1 [Compound 211] | 30 nM
CCOc1c(C(=O)O)cnn1-c1cccc(-c2cccc(C)c2OCc2cc(C)c3c(c2)CCN(CC2COCCO2)C3)n1 (stereo not shown) [Compound 243] | 16 nM
COc1c(C(=O)O)cnn1-c1cccc(-c2cccc(C)c2OCc2ccc3c(c2)CCN(CC2CC2)C3)n1 [Compound 24] | 54 nM
CCOc1c(C(=O)O)cnn1-c1cccc(-c2cccc(C)c2OCc2ccc3c(c2C)CCN(C[C@@H]2CCCCO2)CC3)n1 [Compound 215] | 37 nM
CCOc1c(C(=O)O)cnn1-c1cccc(-c2cccc(C)c2OCc2ccc3c(c2C)CCN(C[C@H]2COCCO2)CC3)n1 [Compound 212] | 36 nM
COc1c(C(=O)O)cnn1-c1cccc(-c2cccc(C)c2OCc2ccc3c(c2)CCN(C2CCOC2)C3)n1 (stereo not shown) [Compound 15] | 28 nM
CCOc1c(C(=O)O)cnn1-c1cccc(-c2cccc(C)c2OCc2ccc3c(c2C)CCN(C[C@H]2CCOC2)C3)n1 [Compound 193] | 12 nM
CCOc1c(C(=O)O)cnn1-c1cccc(-c2cccc(C)c2OCc2ccc3c(c2C)CCN(C[C@@H]2CCCCO2)C3)n1 [Compound 236] | 28 nM
CCOc1c(C(=O)O)cnn1-c1cccc(-c2cccc(C)c2OCc2ccc3c(c2C)CCN(C[C@@H]2CCCO2)CC3)n1 [Compound 235] | 20 nM
CCOc1c(C(=O)O)cnn1-c1cccc(-c2cccc(C)c2OCc2ccc3c(c2C)CCN(C[C@H]2CCCCO2)CC3)n1 [Compound 214] | 30 nM
COc1c(C(=O)O)cnn1-c1cccc(-c2cccc(C)c2OCc2ccc3c(c2F)CCN(C[C@H]2COCCO2)C3)n1 [Compound 234] | 13 nM
COc1c(C(=O)O)cnn1-c1cccc(-c2cccc(C)c2OCc2cc(C)c3c(c2)CCN(C2COC2)C3)n1 [Compound 186] | 16 nM
CCOc1c(C(=O)O)cnn1-c1cccc(-c2cccc(C)c2OCc2ccc3c(c2C)CCN(CC2(C)COC2)CC3)n1 [Compound 190] | 23 nM
CCOc1c(C(=O)O)cnn1-c1cccc(-c2cccc(C)c2OCc2cc(C)c3c(c2)CCN(C(C)COC)C3)n1 (stereo not shown) [Compound 210] | 19 nM
COc1c(C(=O)O)cnn1-c1cccc(-c2cc(C)cc(C)c2OCc2ccc3c(c2C)CCN(C2CCOCC2)C3)n1 [Compound 180] | 28 nM

SMILES | EC50
COc1ccc(OCc2ccc3c(c2C)CCN(C2CCOCC2)C3)c(-c2cccc(-n3ncc(C(=O)O)c3OC)n2)c1 [Compound 182] | 370 nM
CCOc1c(C(=O)O)cnn1-c1cccc(-c2cccc(C)c2OCc2cc(C)c3c(c2)CCN(CC2(C)COC2)C3)n1 [Compound 200] | 20 nM
CCOc1c(C(=O)O)cnn1-c1cccc(-c2cccc(C)c2OCc2ccc3c(c2C)CCN(CC2(F)COC2)C3)n1 [Compound 208] | 20 nM
CCOc1c(C(=O)O)cnn1-c1cccc(-c2cccc(C)c2OCc2ccc3c(c2C)CCN(CC2COCCO2)C3)n1 (stereo in doubt) [Compound 185, 1-{6-[2-(2-(S)-1-[1,4]Dioxan-2-ylmethyl-5-methyl-1,2,3,4-tetrahydro-isoquinolin-6-ylmethoxy)-3-methyl-phenyl]-pyridin-2-yl}-5-ethoxy-1H-pyrazole-4-carboxylic acid] | 30 nM
COc1c(C(=O)O)cnn1-c1cccc(-c2cccc(C)c2OCc2cc(F)c3c(c2)CCN([C@@H]2CCOC2)C3)n1 [Compound 253] | 13 nM
COc1c(C(=O)O)cnn1-c1cccc(-c2cccc(C)c2OCc2ccc3c(c2C)CCN(CC2(C)COC2)C3)n1 [Compound 28] | 13 nM
CCOc1c(C(=O)O)cnn1-c1cccc(-c2cccc(C)c2OCc2cc(C)c3c(c2)CCN([C@H]2CCCOC2)C3)n1 [Compound 197] | 19 nM
COc1c(C(=O)O)cnn1-c1cccc(-c2cccc(C)c2OCc2ccc3c(c2Cl)CCN(CC(C)(C)C)C3)n1 [Compound 21] | 17 nM
COc1c(C(=O)O)cnn1-c1cccc(-c2ccccc2OCc2ccc3c(c2)CCN(C2CCOCC2)C3)n1 [Compound 209] | 200 nM
COc1c(C(=O)O)cnn1-c1cccc(-c2cccc(C)c2OCc2ccc3c(c2Cl)CCN(C2COC2)C3)n1 [Compound 17] | 18 nM
COc1c(C(=O)O)cnn1-c1cccc(-c2cccc(C)c2OCc2ccc3c(c2Cl)CCN(C2CCC2)C3)n1 [Compound 20] | 24 nM
COc1c(C(=O)O)cnn1-c1cccc(-c2cccc(C)c2OCc2cc(C)c3c(c2)CCN(C2CCOC2)C3)n1 (stereo not shown) [Compound 242] | 11 nM
COc1c(C(=O)O)cnn1-c1cccc(-c2cccc(C)c2OCc2cc(C#N)c3c(c2)CCN(C2CCOCC2)C3)n1 [Compound 250] | 44 nM
COc1c(C(=O)O)cnn1-c1cccc(-c2cccc(C)c2OCc2ccc3c(c2)CCN(CC2CCC2)C3)n1 [Compound 25] | 16 nM
COc1c(C(=O)O)cnn1-c1cccc(-c2cccc(C)c2OCc2ccc3c(c2Cl)CCN(C2CCOC2)C3)n1 (stereo not shown) [Compound 22] | 14 nM

Other lines, results leading:

EC50 | SMILES
7.9 nM | COc1c(C(=O)O)cnn1-c1cccc(-c2cccc(C)c2OCc2cc(C)c3c(c2)CCN(CC2COCCO2)C3)n1 (stereo not shown) [Compound 240]
3.3 nM | COc1c(C(=O)O)cnn1-c1cccc(-c2cccc(C)c2OCc2ccc3c(c2C)CCN(C[C@@H]2CCOC2)C3)n1 [Compound 191]
10 nM | CCOc1c(C(=O)O)cnn1-c1cccc(-c2cccc(C)c2OCc2ccc3c(c2C)CCN([C@H]2CCOC2)CC3)n1 [Compound 225]
8.5 nM | COc1c(C(=O)O)cnn1-c1cccc(-c2cccc(C)c2OCc2ccc3c(c2C)CCN(C[C@@H]2CCCO2)CC3)n1 [Compound 223]
11 nM | CCOc1c(C(=O)O)cnn1-c1cccc(-c2cccc(C)c2OCc2ccc3c(c2C)CCN(C[C@H]2CCCO2)CC3)n1 [Compound 233]
9 nM | COc1c(C(=O)O)cnn1-c1cccc(-c2cccc(C)c2OCc2ccc3c(c2C)CCN(C[C@H]2CCCCO2)C3)n1 [Compound 199]
8.6 nM | COc1c(C(=O)O)cnn1-c1cccc(-c2cccc(C)c2OCc2ccc3c(c2)CCN(C[C@@H]2CCOC2)C3)n1 [Compound 188]
4.6 nM | COc1c(C(=O)O)cnn1-c1cccc(-c2cccc(C)c2OCc2ccc3c(c2F)CCN(C[C@@H]2COCCO2)C3)n1 [Compound 231]
9.5 nM | CCOc1c(C(=O)O)cnn1-c1cccc(-c2cccc(C)c2OCc2ccc3c(c2C)CCN(C[C@H]2CCCCO2)C3)n1 [Compound 232]
4.6 nM | CCc1cc(COc2c(C)cccc2-c2cccc(-n3ncc(C(=O)O)c3OC)n2)cc2c1CN(C1COC1)CC2 [Compound 249]
8.6 nM | COc1c(C(=O)O)cnn1-c1cccc(-c2cccc(C)c2OCc2ccc3c(c2)CN(CC2COCCO2)C3)n1 (stereo not shown) [Compound 247]
4.2 nM | CCc1cc(COc2c(C)cccc2-c2cccc(-n3ncc(C(=O)O)c3OC)n2)cc2c1CN(C1CCOCC1)CC2 [Compound 248]
6.5 nM | COc1c(C(=O)O)cnn1-c1cccc(-c2cccc(C)c2OCc2cc(C)c3c(c2)CCN(CC2(C)COC2)C3)n1 [Compound 239]
5 nM | COc1c(C(=O)O)cnn1-c1cccc(-c2cccc(C)c2OCc2ccc3c(c2)CCN(CC2CC(F)(F)C2)C3)n1 [Compound 26]
3.9 nM | COc1c(C(=O)O)cnn1-c1cccc(-c2cccc(C)c2OCc2cc(F)c3c(c2)CCN(C[C@H]2CCCCO2)C3)n1 [Compound 229]
3.5 nM | COc1c(C(=O)O)cnn1-c1cccc(-c2cccc(C)c2OCc2ccc3c(c2C)CCN(CC2CC(F)(F)C2)C3)n1 [Compound 29]
5.1 nM | COc1c(C(=O)O)cnn1-c1cccc(-c2cccc(C)c2OCc2ccc3c(c2C)CCN(C2CCCOC2)C3)n1 (stereo not shown) [Compound 238]
4.5 nM | COc1c(C(=O)O)cnn1-c1cccc(-c2cccc(C)c2OCc2ccc3c(c2C)CCN(C[C@@H]2COCCO2)CC3)n1 [Compound 204]
